# Experimental data taken from US9255100B2 (BAYER INTELLECTUAL PROPERTY GMBH, priority 2010, dated 2016).
# Target: T1, N-terminally GST-tagged human full length recombinant Mps-1 kinase (Homo sapiens, UniProt P33981)
# T1 construct: N-terminally GST-tagged human full length recombinant Mps-1 kinase; purchased Invitrogen, Karslruhe, Germany PV4071
# T1 sequence (P33981 1-857): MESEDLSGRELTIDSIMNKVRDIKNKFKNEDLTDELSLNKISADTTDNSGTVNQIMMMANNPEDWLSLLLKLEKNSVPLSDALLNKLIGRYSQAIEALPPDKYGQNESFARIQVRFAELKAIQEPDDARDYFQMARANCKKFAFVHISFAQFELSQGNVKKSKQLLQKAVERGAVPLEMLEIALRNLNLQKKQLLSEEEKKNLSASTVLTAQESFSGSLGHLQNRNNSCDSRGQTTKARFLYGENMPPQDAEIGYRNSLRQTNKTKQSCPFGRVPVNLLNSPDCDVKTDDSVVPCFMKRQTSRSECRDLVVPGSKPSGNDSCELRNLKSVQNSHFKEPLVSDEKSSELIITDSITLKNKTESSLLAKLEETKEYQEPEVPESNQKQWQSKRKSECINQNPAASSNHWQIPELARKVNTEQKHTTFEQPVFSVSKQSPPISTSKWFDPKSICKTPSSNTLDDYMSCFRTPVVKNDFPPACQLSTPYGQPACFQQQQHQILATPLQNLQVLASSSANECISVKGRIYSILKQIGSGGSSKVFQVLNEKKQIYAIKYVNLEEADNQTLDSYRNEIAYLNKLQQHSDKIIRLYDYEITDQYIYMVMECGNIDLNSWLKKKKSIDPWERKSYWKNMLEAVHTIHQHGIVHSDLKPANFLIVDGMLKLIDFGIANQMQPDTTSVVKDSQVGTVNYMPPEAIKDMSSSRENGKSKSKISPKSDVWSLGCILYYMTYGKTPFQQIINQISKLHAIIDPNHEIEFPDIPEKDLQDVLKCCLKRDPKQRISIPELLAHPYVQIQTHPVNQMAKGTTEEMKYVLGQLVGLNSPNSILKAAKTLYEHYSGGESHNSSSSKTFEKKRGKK
# Assay: Mps-1 kinase assay (TR-FRET)
# Format: biochemical
# Settings: Mps1 IC50 [nM], 10 μM ATP, 1 μM peptide substrate, 60 min at 22° C.
# Method in brief: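 GST-tagged full-length recombinant Mps-1 at about 1 nM final, adjusted per lot for linear range, phosphorylated a biotinylated peptide. Product bound Eu-anti-phospho(Ser/Thr) antibody over 1 h at 22° C and was read by TR-FRET to streptavidin-XLent. Compounds scored for kinase inhibition.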
row,Compound,IC50 [nM]
1,"Cc1cc(-c2cnc3c(NCC(C)(C)O)cc(O[C@H]4CCNC4=O)nn23)ccc1C(=O)NC1CC1 [Example 263, N-cyclopropyl-4-(8-[(2-hydroxy-2-methylpropyl)amino]-6-{[(3S)-2-oxopyrrolidin-3-yl]oxy}imidazo[1,2-b]pyridazin-3-yl)-2-methylbenzamide]",32.4
2,"Cc1ccc(Oc2cc(NCC(C)(C)O)c3ncc(-c4ccc(C(=O)NC5CC5)c(C)c4)n3n2)cn1 [Example 264, N-cyclopropyl-4-{8-[(2-hydroxy-2-methylpropyl)amino]-6-[(6-methylpyridin-3-yl)oxy]imidazo[1,2-b]pyridazin-3-yl}-2-methylbenzamide]",2
3,"Cc1cc(-c2cnc3c(NCC(C)(C)O)cc(Oc4cncnc4)nn23)ccc1C(=O)NC1CC1 [Example 265, N-cyclopropyl-4-{8-[(2-hydroxy-2-methylpropyl)amino]-6-(pyrimidin-5-yloxy)imidazo[1,2-b]pyridazin-3-yl}-2-methylbenzamide]",0.9
4,"Cc1cc(-c2cnc3c(NCCC(F)(F)F)cc(Oc4cccc(Cl)c4)nn23)ccc1C(=O)NC1CC1 [Example 266, 4-{6-(3-chlorophenoxy)-8-[(3,3,3-trifluoropropyl)amino]imidazo[1,2-b]pyridazin-3-yl}-N-cyclopropyl-2-methylbenzamide]",0.3
5,"Cc1cc(-c2cnc3c(NCCC(F)(F)F)cc(Oc4ccc(Cl)cc4)nn23)ccc1C(=O)NC1CC1 [Example 267, 4-{6-(4-chlorophenoxy)-8-[(3,3,3-trifluoropropyl)amino]imidazo[1,2-b]pyridazin-3-yl}-N-cyclopropyl-2-methylbenzamide]",0.3
6,"Cc1cc(-c2cnc3c(NCCC(F)(F)F)cc(Sc4ccccc4F)nn23)ccc1C(=O)NC1CC1 [Example 268, N-cyclopropyl-4-{6-[(2-fluorophenyl)sulfanyl]-8-[(3,3,3-trifluoropropyl)amino]imidazo[1,2-b]pyridazin-3-yl}-2-methylbenzamide]",0.2
7,"Cc1ccc(F)cc1Sc1cc(NCCC(F)(F)F)c2ncc(-c3ccc(C(=O)NC4CC4)c(C)c3)n2n1 [Example 269, N-cyclopropyl-4-{6-[(5-fluoro-2-methylphenyl)sulfanyl]-8-[(3,3,3-trifluoropropyl)amino]imidazo[1,2-b]pyridazin-3-yl}-2-methylbenzamide]",0.3
8,"Cc1cc(-c2cnc3c(NCCC(F)(F)F)cc(Sc4ccccc4CO)nn23)ccc1C(=O)NC1CC1 [Example 270, N-cyclopropyl-4-(6-{[2-(hydroxymethyl)phenyl]sulfanyl}-8-[(3,3,3-trifluoropropyl)amino]imidazo[1,2-b]pyridazin-3-yl)-2-methylbenzamide]",0.1
9,Cc1cc(-c2cnc3c(NCC(C)(C)O)cc(Sc4cccc(OC(C)C)c4)nn23)ccc1C(=O)NC1CC1 [Example 271],1
10,"Cc1cc(-c2cnc3c(NCC(C)(C)O)cc(Sc4cccc(C(C)C)c4)nn23)ccc1C(=O)NC1CC1 [Example 273, N-cyclopropyl-4-{8-[(2-hydroxy-2-methylpropyl)amino]-6-[(3-isopropylphenyl)sulfanyl]imidazo[1,2-b]pyridazin-3-yl}-2-methylbenzamide]",0.5
11,"Cc1cc(-c2cnc3c(NCC(C)(C)O)cc(Oc4ccccn4)nn23)ccc1C(=O)NC1CC1 [Example 274, N-cyclopropyl-4-{8-[(2-hydroxy-2-methylpropyl)amino]-6-(pyridin-2-yloxy)imidazo[1,2-b]pyridazin-3-yl}-2-methylbenzamide]",73.8
12,"Cc1cc(-c2cnc3c(NCC(C)(C)O)cc(Oc4cccc(OCC(C)(C)O)c4)nn23)ccc1C(=O)NC1CC1 [Example 275, N-cyclopropyl-4-{6-[3-(2-hydroxy-2-methylpropoxy)phenoxy]-8-[(2-hydroxy-2-methylpropyl)amino]imidazo[1,2-b]pyridazin-3-yl}-2-methylbenzamide]",5.4
13,"Cc1cc(-c2cnc3c(NCCO)cc(Sc4cccc(F)c4)nn23)ccc1C(=O)NC1CC1 [Example 276, N-cyclopropyl-4-{6-[(3-fluorophenyl)sulfanyl]-8-[(2-hydroxyethyl)amino]imidazo[1,2-b]pyridazin-3-yl}-2-methylbenzamide]",0.1
14,"Cc1cc(-c2cnc3c(NCCO)cc(Oc4cccc(F)c4)nn23)ccc1C(=O)NC1CC1 [Example 277, N-cyclopropyl-4-{6-(3-fluorophenoxy)-8-[(2-hydroxyethyl)amino]imidazo[1,2-b]pyridazin-3-yl}-2-methylbenzamide]",< 0.1
15,"Cc1cc(-c2cnc3c(NCCC(F)(F)F)cc(OCC(F)(F)C(F)(F)CO)nn23)ccc1C(=O)NC1CC1 [Example 278A, N-cyclopropyl-2-methyl-4-{6-(2,2,3,3-tetrafluoro-4-hydroxybutoxy)-8-[(3,3,3-trifluoropropyl)amino]imidazo[1,2-b]pyridazin-3-yl}benzamide]",0.4
16,"Cc1cc(-c2cnc3c(NCCC(F)(F)F)cc(O/C=C(/F)C(F)(F)CO)nn23)ccc1C(=O)NC1CC1 [Example 278B, N-cyclopropyl-2-methyl-4-(6-{[(1E)-2,3,3-trifluoro-4-hydroxybut-1-en-1-yl]oxy}-8-[(3,3,3-trifluoropropyl)amino]imidazo[1,2-b]pyridazin-3-yl)benzamide]",1
17,"COC(=O)c1cc(F)ccc1-c1cc(NCC(C)(C)O)c2ncc(-c3ccc(C(=O)NC4CC4)c(C)c3)n2n1 [Example 279, 2-{3-[4-(cyclopropylcarbamoyl)-3-methylphenyl]-8-[(2-hydroxy-2-methylpropyl)amino]imidazo[1,2-b]pyridazin-6-yl}-5-fluoro-benzoic acid methyl ester]",148
18,"Cc1cc(-c2cnc3c(NCCC(F)(F)F)cc(Oc4ccccc4O)nn23)ccc1C(=O)NC1CC1 [Example 280, N-cyclopropyl-4-{6-(2-hydroxyphenoxy)-8-[(3,3,3-trifluoropropyl)amino]imidazo[1,2-b]pyridazin-3-yl}-2-methylbenzamide]",0.1
19,"Cc1cc(-c2cnc3c(NCC4CCSCC4)cc(Oc4cccc(F)c4)nn23)ccc1C(=O)NC1CC1 [Example 281, N-cyclopropyl-4-{6-(3-fluorophenoxy)-8-[(tetrahydro-2H-thiopyran-4-ylmethyl)amino]imidazo[1,2-b]pyridazin-3-yl}-2-methylbenzamide]",0.3
20,"Cc1cc(F)cc(Oc2cc(NCC3CCSCC3)c3ncc(-c4ccc(C(=O)NC5CC5)c(C)c4)n3n2)c1 [Example 282, N-cyclopropyl-4-{6-(3-fluoro-5-methylphenoxy)-8-[(tetrahydro-2H-thiopyran-4-ylmethyl)amino]imidazo[1,2-b]pyridazin-3-yl}-2-methylbenzamide]",0.4
21,"Cc1cc(-c2cnc3c(NCC4CCSCC4)cc(Oc4ccccc4F)nn23)ccc1C(=O)NC1CC1 [Example 283, N-cyclopropyl-4-{6-(2-fluorophenoxy)-8-[(tetrahydro-2H-thiopyran-4-ylmethyl)amino]imidazo[1,2-b]pyridazin-3-yl}-2-methylbenzamide]",0.3
22,"Cc1cc(-c2cnc3c(NCC4CCSCC4)cc(Sc4ccccc4)nn23)ccc1C(=O)NC1CC1 [Example 284, N-cyclopropyl-2-methyl-4-{6-(phenylsulfanyl)-8-[(tetrahydro-2H-thiopyran-4-ylmethyl)amino]imidazo[1,2-b]pyridazin-3-yl}benzamide]",0.4
23,"Cc1cc(-c2cnc3c(NCC4CCSCC4)cc(Sc4cccc(F)c4)nn23)ccc1C(=O)NC1CC1 [Example 285, N-cyclopropyl-4-{6-[(3-fluorophenyl)sulfanyl]-8-[(tetrahydro-2H-thiopyran-4-ylmethyl)amino]imidazo[1,2-b]pyridazin-3-yl}-2-methylbenzamide]",0.4
24,"Cc1cc(F)cc(Sc2cc(NCC3CCSCC3)c3ncc(-c4ccc(C(=O)NC5CC5)c(C)c4)n3n2)c1 [Example 286, N-cyclopropyl-4-{6-[(3-fluoro-5-methylphenyl)sulfanyl]-8-[(tetrahydro-2H-thiopyran-4-ylmethyl)amino]imidazo[1,2-b]pyridazin-3-yl}-2-methylbenzamide]",0.4
25,"Cc1cc(-c2cnc3c(NCC4CCSCC4)cc(Sc4cccc(O)c4)nn23)ccc1C(=O)NC1CC1 [Example 287, N-cyclopropyl-4-{6-[(3-hydroxyphenyl)sulfanyl]-8-[(tetrahydro-2H-thiopyran-4-ylmethyl)amino]imidazo[1,2-b]pyridazin-3-yl}-2-methylbenzamide]",0.3
26,"Cc1cc(-c2cnc3c(NCC4CCSCC4)cc(Sc4ccccc4O)nn23)ccc1C(=O)NC1CC1 [Example 289, N-cyclopropyl-4-{6-[(2-hydroxyphenyl)sulfanyl]-8-[(tetrahydro-2H-thiopyran-4-ylmethyl)amino]imidazo[1,2-b]pyridazin-3-yl}-2-methylbenzamide]",0.2
